Assay results from patent US9023843B2, “Antimicrobial compounds and methods of making and using the same” (Melinta Therapeutics, Inc., priority 2009, dated 2015).

Tested on: Eschericia coli strain ATCC25922
Assay: standard microdilution assay to determine minimum inhibitory concentrations (MICs)
Type: cell-based
Settings: Escherichia coli, read-out: E. coli ATCC25922 MIC
Procedure, shortened: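 Broth microdilution per CLSI protocols, typically 100 µL final volume, against E. coli ATCC25922. MIC values scored as +/− against a cutoff of 16 micrograms/ml.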

| Structure (SMILES) | MIC [µg/mL] |
| --- | --- |
| NCCCN1CCC(n2cc3c(nc2=O)Nc2ccccc2O3)CC1 [Compound 528] | > 16 |
| NCCCNCc1ccc(-c2cn3c(=O)cc(Cc4ccccc4OC(F)(F)F)[nH]c3nc2=O)cc1 [Compound 426] | > 16 |
| NCCCN1CC=C(c2cnc3[nH]c(-c4ccc(F)cc4)cn3c2=O)CC1 [Compound 569] | > 16 |
| N=C(N)NCCC(=O)NC1CCC(n2cc3c(nc2=O)Nc2cc(C4CCNCC4)ccc2O3)CC1 (stereo not drawn) [Compound 1032] | < 16 |
| CN(C)CC(=O)N1CCC(c2ccc3c(c2)Nc2nc(=O)n(C4CCC(NCCCNC(=N)N)CC4)cc2O3)CC1 (stereo not drawn) [Compound 751] | < 16 |
| N=C(N)NCCCNC1CCC(n2cc3c(nc2=O)Nc2cc(C4CCN(C(=O)Nc5ccc(F)cc5)CC4)ccc2O3)CC1 (stereo not drawn) [Compound 765] | < 16 |
| N=C(N)NCCCN1CCC(n2cc3c(nc2=O)Nc2cc(C(=O)NCC(F)(F)C(F)(F)F)ccc2O3)CC1 [Compound 643] | > 16 |
| NCCCN1CCC(n2cc3c(nc2=O)Nc2cc(C4CCN(C(=O)CN)CC4)ccc2O3)CC1 [Compound 714] | > 16 |
| N=C(N)NCCCN1CCC(n2cc3c(nc2=O)Nc2cc(C4CCN(C(=O)C(N)CO)CC4)ccc2O3)CC1 (stereo not drawn) [Compound 718] | > 16 |
| N=C(N)NCCCNC1CCC(n2cc3c(nc2=O)Nc2cc(C(=O)NCCN4CCNCC4)ccc2O3)CC1 (stereo not drawn) [Compound 741] | < 16 |
| NCCCN1CCC(n2cc3c(nc2=O)Nc2cc(CCc4cccc(F)c4)ccc2O3)CC1 [Compound 592, 3-[1-(3-Amino-propyl)-piperidin-4-yl]-7-[2-(3-fluoro-phenyl)-ethyl]-3H,9H-10-oxa-1,3,9-triaza-anthracen-2-one] | < 16 |
| NCCCNCc1ccc(-n2cc3c(nc2=O)Nc2ccc(C#Cc4ccc(F)cc4)cc2O3)cc1 [Compound 460] | > 16 |
